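Grown in 96-well plates, cells were treated for 48 hours with each compound at five concentrations. Insufficient inhibition: endpoint recorded as highest concentration tested. Abbreviation: GI50, concentration required for 50% inhibition of growth. TGI is the concentration that stops growth completely.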
Legend:
Assay in all cases: NCI anticancer screen, dose series, 48 h
HT29 colon = tested on: HT29 colon
SW-620 colon = tested on: SW-620 colon
HOP-62 NSCLC = tested on: HOP-62 NSCLC
HCT-15 colon = tested on: HCT-15 colon
CCRF-CEM leukemia = tested on: CCRF-CEM leukemia
HCC-2998 colon = tested on: HCC-2998 colon
A549 NSCLC = tested on: A549 NSCLC
SK-MEL-2 melanoma = tested on: SK-MEL-2 melanoma
U251 CNS = tested on: U251 CNS
HCT-116 colon = tested on: HCT-116 colon
MCF7 breast = tested on: MCF7 breast
RPMI-8226 leukemia = tested on: RPMI-8226 leukemia
T-47D breast = tested on: T-47D breast
NCI-H23 lung = tested on: NCI-H23 lung
A498 renal = tested on: A498 renal
SK-MEL-5 melanoma = tested on: SK-MEL-5 melanoma
786-0 renal = tested on: 786-0 renal
SR leukemia = tested on: SR leukemia
KM12 colon = tested on: KM12 colon
SF-539 CNS = tested on: SF-539 CNS
UO-31 renal = tested on: UO-31 renal
HOP-92 NSCLC = tested on: HOP-92 NSCLC
PC-3 prostate = tested on: PC-3 prostate
ACHN renal = tested on: ACHN renal
IGROV1 ovarian = tested on: IGROV1 ovarian
BT-549 breast = tested on: BT-549 breast
RXF 393 renal = tested on: RXF 393 renal
MDA-MB-435 = tested on: MDA-MB-435
SNB-75 CNS = tested on: SNB-75 CNS
M14 melanoma = tested on: M14 melanoma
DU-145 prostate = tested on: DU-145 prostate
NCI-H460 lung = tested on: NCI-H460 lung
SK-OV-3 ovarian = tested on: SK-OV-3 ovarian
OVCAR-5 ovarian = tested on: OVCAR-5 ovarian
SK-MEL-28 melanoma = tested on: SK-MEL-28 melanoma
TK-10 renal = tested on: TK-10 renal
EKVX NSCLC = tested on: EKVX NSCLC
NCI-H522 lung = tested on: NCI-H522 lung
SF-268 CNS = tested on: SF-268 CNS
COLO 205 colon = tested on: COLO 205 colon
SF-295 CNS = tested on: SF-295 CNS
LOX IMVI melanoma = tested on: LOX IMVI melanoma
HL-60(TB) leukemia = tested on: HL-60(TB) leukemia
OVCAR-4 ovarian = tested on: OVCAR-4 ovarian
SN12C renal = tested on: SN12C renal
MOLT-4 leukemia = tested on: MOLT-4 leukemia
MALME-3M melanoma = tested on: MALME-3M melanoma
SNB-19 CNS = tested on: SNB-19 CNS
CAKI-1 renal = tested on: CAKI-1 renal
HS 578T breast = tested on: HS 578T breast
MDA-MB-231 breast = tested on: MDA-MB-231 breast
OVCAR-8 ovarian = tested on: OVCAR-8 ovarian
NCI-H226 lung = tested on: NCI-H226 lung
UACC-257 melanoma = tested on: UACC-257 melanoma
NCI/ADR-RES ovarian = tested on: NCI/ADR-RES ovarian
OVCAR-3 ovarian = tested on: OVCAR-3 ovarian
K-562 leukemia = tested on: K-562 leukemia
UACC-62 melanoma = tested on: UACC-62 melanoma

## C[C@@H]1OC(=O)NN=C1c1ccc(-c2ccc(F)cc2)c(C(F)(F)F)c1
HT29 colon
  GI50: 10.3 µM
  TGI: 25.4 µM
SW-620 colon
  GI50: 10.2 µM
  TGI: 25.3 µM
HOP-62 NSCLC
  GI50: 10.7 µM
  TGI: 26.2 µM
HCT-15 colon
  GI50: 4.6 µM
  TGI: 17.9 µM
CCRF-CEM leukemia
  GI50: 8.25 µM
  TGI: > 100 µM
HCC-2998 colon
  GI50: 10.6 µM
  TGI: 23.1 µM
A549 NSCLC
  GI50: 8.21 µM
  TGI: 22.8 µM
SK-MEL-2 melanoma
  GI50: 0.141 µM
  TGI: 13.1 µM
U251 CNS
  GI50: 10.2 µM
  TGI: 23.3 µM
HCT-116 colon
  GI50: 5.27 µM
  TGI: 20.6 µM
MCF7 breast
  GI50: 10.1 µM
  TGI: 25 µM
RPMI-8226 leukemia
  GI50: 5.78 µM
  TGI: 51.2 µM
T-47D breast
  GI50: 5.26 µM
  TGI: 25.8 µM
NCI-H23 lung
  GI50: 7.17 µM
  TGI: 21.2 µM
A498 renal
  GI50: 15.5 µM
  TGI: 29.5 µM
SK-MEL-5 melanoma
  GI50: 2.28 µM
  TGI: 9.01 µM
786-0 renal
  GI50: 13.7 µM
  TGI: 30.3 µM
SR leukemia
  GI50: 2.58 µM
  TGI: 13 µM
KM12 colon
  GI50: 5.95 µM
  TGI: 19.5 µM
SF-539 CNS
  GI50: 11.2 µM
  TGI: 24.3 µM
UO-31 renal
  GI50: 7.79 µM
  TGI: 20.9 µM
HOP-92 NSCLC
  GI50: 11 µM
  TGI: 25.9 µM
PC-3 prostate
  GI50: 10.5 µM
  TGI: 26.8 µM
ACHN renal
  GI50: 11.2 µM
  TGI: 23.2 µM
IGROV1 ovarian
  GI50: 14.2 µM
  TGI: 29.9 µM
BT-549 breast
  GI50: 7.3 µM
  TGI: 21.2 µM
RXF 393 renal
  GI50: 1.58 µM
  TGI: 7.62 µM
MDA-MB-435
  GI50: 3.57 µM
  TGI: 13.9 µM
SNB-75 CNS
  GI50: 5 µM
  TGI: 20.4 µM
M14 melanoma
  GI50: 7.14 µM
  TGI: 21.6 µM
DU-145 prostate
  GI50: 1.57 µM
  TGI: 20.7 µM
NCI-H460 lung
  GI50: 11.7 µM
  TGI: 25.6 µM
SK-OV-3 ovarian
  GI50: 12.6 µM
  TGI: 27.5 µM
OVCAR-5 ovarian
  GI50: 5.02 µM
  TGI: 21.6 µM
SK-MEL-28 melanoma
  GI50: 10.5 µM
  TGI: 22.6 µM
TK-10 renal
  GI50: 1.65 µM
  TGI: 19.6 µM
EKVX NSCLC
  TGI: 12.4 µM
NCI-H522 lung
  GI50: 2.72 µM
  TGI: 14.5 µM
SF-268 CNS
  GI50: 1.03 µM
  TGI: 21.5 µM
COLO 205 colon
  GI50: 11.8 µM
  TGI: 28 µM
SF-295 CNS
  GI50: 5.49 µM
  TGI: 19.2 µM
LOX IMVI melanoma
  GI50: 4.78 µM
  TGI: 18.8 µM
HL-60(TB) leukemia
  GI50: 7.93 µM
  TGI: > 100 µM
OVCAR-4 ovarian
  GI50: 6.36 µM
  TGI: 20.6 µM
SN12C renal
  GI50: 5.63 µM
  TGI: 21.8 µM
MOLT-4 leukemia
  GI50: 5.27 µM
  TGI: 33.4 µM
MALME-3M melanoma
  GI50: 12.5 µM
  TGI: 25.8 µM
SNB-19 CNS
  GI50: 11 µM
  TGI: 23.3 µM
CAKI-1 renal
  GI50: 4.88 µM
  TGI: 18.7 µM
HS 578T breast
  TGI: 3.37 µM
MDA-MB-231 breast
  GI50: 10.1 µM
  TGI: 24.9 µM
OVCAR-8 ovarian
  GI50: 12.7 µM
  TGI: 31.1 µM
NCI-H226 lung
  GI50: 2.57 µM
  TGI: 20.6 µM
UACC-257 melanoma
  GI50: 3.72 µM
  TGI: 19.2 µM
NCI/ADR-RES ovarian
  GI50: 5.08 µM
  TGI: 21.2 µM
OVCAR-3 ovarian
  GI50: 6.01 µM
  TGI: 20.3 µM
K-562 leukemia
  GI50: 3.2 µM
  TGI: > 100 µM

## NC(Cc1c[nH]c2cc(F)ccc12)C(=O)O (centres undefined)
HT29 colon
  GI50: 850 µM
  TGI: > 2500 µM
SW-620 colon
  GI50: 1480 µM
  TGI: > 2500 µM
HOP-62 NSCLC
  GI50: 961 µM
  TGI: > 2500 µM
HCT-15 colon
  GI50: 888 µM
  TGI: > 2500 µM
CCRF-CEM leukemia
  GI50: 1240 µM
  TGI: > 2500 µM
HCC-2998 colon
  GI50: 1640 µM
  TGI: > 2500 µM
A549 NSCLC
  GI50: 1150 µM
  TGI: > 2500 µM
SK-MEL-2 melanoma
  GI50: 1910 µM
  TGI: > 2500 µM
U251 CNS
  GI50: 872 µM
  TGI: > 2500 µM
HCT-116 colon
  GI50: 1030 µM
  TGI: > 2500 µM
MCF7 breast
  GI50: 1290 µM
  TGI: > 2500 µM
RPMI-8226 leukemia
  GI50: > 2500 µM
  TGI: > 2500 µM
T-47D breast
  GI50: > 2500 µM
  TGI: > 2500 µM
NCI-H23 lung
  GI50: 1010 µM
  TGI: > 2500 µM
A498 renal
  GI50: > 2500 µM
  TGI: > 2500 µM
SK-MEL-5 melanoma
  GI50: 557 µM
  TGI: 1140 µM
786-0 renal
  GI50: 1080 µM
  TGI: > 2500 µM
SR leukemia
  GI50: 1040 µM
  TGI: > 2500 µM
UACC-62 melanoma
  GI50: 1700 µM
  TGI: > 2500 µM
KM12 colon
  GI50: 1180 µM
  TGI: > 2500 µM
SF-539 CNS
  GI50: 890 µM
  TGI: > 2500 µM
UO-31 renal
  TGI: > 2500 µM
HOP-92 NSCLC
  GI50: > 2500 µM
  TGI: > 2500 µM
PC-3 prostate
  GI50: 1810 µM
  TGI: > 2500 µM
ACHN renal
  GI50: 1640 µM
  TGI: > 2500 µM
BT-549 breast
  GI50: 841 µM
  TGI: > 2500 µM
RXF 393 renal
  GI50: 1450 µM
  TGI: > 2500 µM
MDA-MB-435
  GI50: 840 µM
  TGI: > 2500 µM
SNB-75 CNS
  GI50: 1940 µM
  TGI: > 2500 µM
M14 melanoma
  GI50: 951 µM
  TGI: > 2500 µM
DU-145 prostate
  GI50: 903 µM
  TGI: > 2500 µM
NCI-H460 lung
  GI50: 768 µM
  TGI: > 2500 µM
SK-OV-3 ovarian
  GI50: 877 µM
  TGI: > 2500 µM
OVCAR-5 ovarian
  GI50: 1090 µM
  TGI: > 2500 µM
SK-MEL-28 melanoma
  GI50: 1150 µM
  TGI: > 2500 µM
TK-10 renal
  GI50: > 2500 µM
  TGI: > 2500 µM
EKVX NSCLC
  GI50: > 2500 µM
  TGI: > 2500 µM
NCI-H522 lung
  GI50: 773 µM
  TGI: 2280 µM
SF-268 CNS
  GI50: 1270 µM
  TGI: > 2500 µM
COLO 205 colon
  GI50: 1120 µM
  TGI: > 2500 µM
SF-295 CNS
  GI50: 502 µM
  TGI: > 2500 µM
LOX IMVI melanoma
  GI50: 820 µM
  TGI: > 2500 µM
HL-60(TB) leukemia
  GI50: 951 µM
  TGI: > 2500 µM
OVCAR-4 ovarian
  GI50: > 2500 µM
  TGI: > 2500 µM
SN12C renal
  GI50: 1330 µM
  TGI: > 2500 µM
MOLT-4 leukemia
  GI50: 1340 µM
  TGI: > 2500 µM
MALME-3M melanoma
  GI50: 859 µM
  TGI: 2320 µM
SNB-19 CNS
  GI50: 1440 µM
  TGI: > 2500 µM
CAKI-1 renal
  TGI: > 2500 µM
HS 578T breast
  GI50: 1780 µM
  TGI: > 2500 µM
MDA-MB-231 breast
  GI50: 1460 µM
  TGI: > 2500 µM
OVCAR-8 ovarian
  GI50: 961 µM
  TGI: > 2500 µM
NCI-H226 lung
  GI50: 2480 µM
  TGI: > 2500 µM
UACC-257 melanoma
  GI50: 1490 µM
  TGI: > 2500 µM
NCI/ADR-RES ovarian
  GI50: 890 µM
  TGI: > 2500 µM
OVCAR-3 ovarian
  GI50: 792 µM
  TGI: > 2500 µM
K-562 leukemia
  GI50: 912 µM
  TGI: > 2500 µM

Reference: PubChem BioAssay (NCI)
